Where two headings read alike, the source gives them in different places.
Legend:
[1] = system: Dahl Salt Sensitive (DSS) rats, hypertension-induced model of heart failure with preserved ejection fraction; assay: Fibrosis reduction in Dahl Salt Sensitive rat model of cardiac hypertrophy; type: in vivo; details: high-salt diet fed DSS rats, compound formulated in chow for 6 weeks, perivascular and interstitial cardiac tissue
Protocol: Assessment of fibrosis reduction was performed using Dahl Salt Sensitive (DSS) rats, a previously reported hypertension-induced rat model of heart failure with preserved ejection fraction (Fillmore et al., Mol Med. 2018, 24(1):3; Dahl et al., J Exp Med. 1962, 115:1173-90).
DSS rats received vehicle or Compound 142 formulated in low or high salt chow for 6 weeks. Perivascular and interstitial cardiac tissue samples were imaged and assayed for % cardiac fibrosis.

[2] = system: rat cardiac contractility (left ventricle fractional shortening); assay: Echocardiography of acute effect on rat cardiac contractility, oral gavage; type: in vivo, Sprague Dawley rats; details: for inhibition in vivo at 6 mg/kg: oral gavage
How it was run: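 Male Sprague Dawley rats under isoflurane (1-3%) anesthesia had three pre-dose baseline M-mode images of the left ventricle (parasternal long-axis view) taken at 1 minute intervals. Compound in 0.5% HPMC 2910: 0.1% Tween 80 suspension was then given as a single oral gavage dose (5 mL/kg). Fractional shortening was measured at chosen time points over 24 hours, with plasma concentrations sampled concurrently.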

[3] = system: adult cardiac ventricular rat myocytes; assay: Adult ventricular myocyte contractility (fractional shortening); type: cell-based; details: 5 min, 5 μM compound, 5 min perfusion, read-out: % FS (% reduction from baseline) ± SEM
Protocol: Adult male Sprague-Dawley rats were anesthetized and the hearts were quickly excised, rinsed and the ascending aorta was cannulated. Continuous retrograde perfusion was initiated on the hearts at a perfusion pressure of 60 cm H2O. Hearts were first perfused with a nominally Ca^2+-free modified Krebs solution of the following composition: 113 mM NaCl, 4.7 mM KCl, 0.6 mM KH2PO4, 0.6 mM Na2HPO4, 1.2 mM MgSO4, 12 mM NaHCO3, 10 mM KHCO3, 30 mM taurine, 5.5 mM glucose and 10 mM Hepes (all Sigma). This medium is not recirculated and is continually aerated with a 95% O2/5% CO2 mixture. After approximately 3 minutes the heart was perfused with a modified Krebs buffer supplemented with collagenase (Worthington) and 12.5 μM final calcium concentration. The heart was removed from the cannulae after the heart appeared blanched and soft in appearance. The atria and vessels were removed and the ventricles were gently dissected into smaller pieces with forceps. The tissue was homogenized by repeated pipette trituration and the collagenase reaction was stopped by 10% bovine calf serum (BCS), sedimentation and resuspension in perfusion buffer containing 5% BCS and 12.5 uM CaCl2). Myocytes were made calcium tolerant by stepwise addition of a CaCl2) solution to a final concentration of 1.2 mM. Cells were then washed and resuspended in Tyrode's buffer (137 mM NaCl, 3.7 mM KCl, 0.5 mM MgCl, 11 mM glucose, 4 mM Hepes, and 1.2 mM CaCl2), pH 7.4). Cells were kept for 60 min at 37° C. prior to initiating experiments and used within 5 hrs of isolation. […] Additionally, only cells whose basal contractility was between 3 and 8% were used in subsequent experiments with compounds.
Aliquots of myocytes in Tyrode's buffer were placed in perfusion chambers (series 20 RC-27NE; Warner Instruments) complete with heating platforms. Myocytes were allowed to attach, the chambers were heated to 37° C., and the cells were perfused with 37° C. Tyrode's buffer. Myocytes were field stimulated at 1 Hz in with platinum electrodes (20% above threshold). Only cells that had clear striations and were quiescent prior to pacing were used for contractility experiments. To determine basal contractility, myocytes were imaged through a 40× objective. […] Once cell contraction was stable over time, test compounds (0.01-15 μM) were perfused into the chambers on the myocytes for 5 minutes. Contractility of the myocytes and contraction and relaxation velocities were then recorded using edge detection.
Five or more individual myocytes were tested per compound from two or more different myocyte preparations. For each cell, twenty or more contractility transients at basal (defined as 1 min prior to compound infusion) and after compound addition (defined as 5 min after starting compound perfusion), were averaged and compared. These average transients were analyzed using the IonWizard software (IonOptix) to determine changes in diastolic length and fractional shortening. Fractional shortening was calculated as: ((resting length−length at peak contraction) divided by the resting length). The percent change in fractional shortening from baseline was calculated as: ((post-dose fractional shortening/basal fractional shortening)*100). The percent reduction in fractional shortening from baseline was calculated as: (100−percent change in fractional shortening from baseline). Maximum contraction and relaxation velocities (um/sec) was also determined. Results from individual cells are averaged and the SEM calculated.

IC50 ([2]; Rattus norvegicus, oral dosing, plasma concentration at which fractional shortening is 50% of pre-dose baseline, estimated): 2900 nM
Compound: CC(C)c1nc(-c2ccc3c(c2)CC[C@H]3NC(=O)c2nnn(C)n2)no1 [Compound 142, (R)—N-(5-(5-isopropyl-1,2,4-oxadiazol-3-yl)-2,3-dihydro-1H-inden-1-yl)-2-methyl-2H-tetrazole-5-carboxamide]
% cardiac fibrosis [1]: attenuated increases in fibrosis
inhibition in vivo at 6 mg/kg ([2]; Rattus norvegicus, 1 h, 1-2 h post dose, read-out: FS (% reduction from baseline) at 1-2 h post dose (Mean ± S.D.)): 40 ± 9%
inhibition in vivo at 6 mg/kg ([2]; Rattus norvegicus, 4 h post dose, read-out: FS (% reduction from baseline) at 4 h post dose (Mean ± S.D.)): 18 ± 11%
IC10 ([2]; oral dosing, plasma concentration at which, estimated): 700 nM
inhibition at 5 µM [3]: 67.8%

Reference: patent US12065436B2, “Cardiac sarcomere inhibitors” (Cytokinetics, Inc., priority 2018, dated 2024)
